Data: ChEMBL document CHEMBL1201862, “PubChem BioAssay data set” (2004)
Active and inactive are the calls of the source.

Assays:
Vero [1] = assay: cells; format: functional; conditions: Chlorocebus sabaeus
Vero [2] = assay: cells; format: functional, cell-based; conditions: Chlorocebus sabaeus
[3] = NIH3T3 cell viability loss – ATP luminescence, mouse fibroblasts, counter-screen, dose response (AID 2010); format: functional, cell-based;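 further: cells exposed to compound for about 90 hours before reading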
[4] = Trypanosoma cruzi growth suppression in host cells – NIH3T3 host cells, beta-gal luminescence, confirmation (AID 2044); format: functional, cell-based;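 further: intracellular parasites grown in NIH/3T3 mouse fibroblasts as host cells; luminescent beta-galactosidase reporter signal from transgenic T. cruzi replicating inside host cells; inhibitors lower the luminescence signal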
[5] = target: T1, Epstein-Barr nuclear antigen 1 (Epstein-Barr virus (strain B95-8) (HHV-4) (Human herpesvirus 4), UniProt P03211); assay: inhibition of EBV nuclear antigen 1 DNA binding – biochemical, fluorescence polarization, 1536-well, dose response (AID 2381); set-up: species or system human gammaherpesvirus 4;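 further: fluorescence polarization of a Cy5 DNA probe bound by EBNA-1 protein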
T1 sequence (P03211 whole entry): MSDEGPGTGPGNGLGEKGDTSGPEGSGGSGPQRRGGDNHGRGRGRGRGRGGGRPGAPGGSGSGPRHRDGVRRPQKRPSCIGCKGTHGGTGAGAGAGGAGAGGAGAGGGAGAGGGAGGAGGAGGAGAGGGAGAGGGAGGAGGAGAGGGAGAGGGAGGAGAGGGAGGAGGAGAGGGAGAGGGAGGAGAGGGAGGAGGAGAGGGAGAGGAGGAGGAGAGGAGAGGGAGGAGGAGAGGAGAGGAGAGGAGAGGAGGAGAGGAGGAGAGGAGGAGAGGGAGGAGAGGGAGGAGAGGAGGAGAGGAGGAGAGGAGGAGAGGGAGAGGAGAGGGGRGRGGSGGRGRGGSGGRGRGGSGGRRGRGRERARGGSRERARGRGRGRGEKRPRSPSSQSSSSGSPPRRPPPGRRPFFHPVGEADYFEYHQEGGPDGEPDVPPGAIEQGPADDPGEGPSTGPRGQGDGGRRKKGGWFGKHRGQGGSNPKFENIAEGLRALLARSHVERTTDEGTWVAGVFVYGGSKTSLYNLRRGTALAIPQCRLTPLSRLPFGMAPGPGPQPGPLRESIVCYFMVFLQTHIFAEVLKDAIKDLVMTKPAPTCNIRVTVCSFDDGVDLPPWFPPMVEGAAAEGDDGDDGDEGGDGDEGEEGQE

[6] = target: T2, Lytic switch protein BZLF1 (Epstein-Barr virus (strain B95-8) (HHV-4) (Human herpesvirus 4), UniProt P03206); assay: inhibition of BZLF1 ZTA DNA binding – biochemical, fluorescence polarization, Epstein-Barr virus, 1536-well, counter-screen for EBNA-1 inhibitor project, dose response (AID 2377); set-up: species or system human gammaherpesvirus 4;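 further: fluorescence polarization of Cy5-labelled ZRE DNA probe bound by purified Zta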
T2 sequence (P03206 whole entry): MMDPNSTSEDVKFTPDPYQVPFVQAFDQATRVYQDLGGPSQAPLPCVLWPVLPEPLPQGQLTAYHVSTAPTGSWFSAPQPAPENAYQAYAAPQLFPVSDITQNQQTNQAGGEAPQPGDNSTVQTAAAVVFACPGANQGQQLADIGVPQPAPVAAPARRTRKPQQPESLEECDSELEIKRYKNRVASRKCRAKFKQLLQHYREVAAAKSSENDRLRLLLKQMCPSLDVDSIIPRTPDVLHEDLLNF

[7] = target: Peroxisome proliferator-activated receptor gamma/Nuclear receptor coactivator 1 (Homo sapiens, UniProt P37231); assay: (§1) TR-FRET dose response biochemical High Throughput Screening assay for agonists of the steroid receptor coactivator 1 (SRC-1) recruitment by the peroxisome proliferator-activated receptor gamma (PPAR gamma): non-selective agonists. [Related pubchem assays (depositor defined):AID1300, AID1808, AID504735, AID631]; format: protein assay
[8] = target: Peroxisome proliferator-activated receptor gamma/Nuclear receptor coactivator 3 (Homo sapiens, UniProt P37231); assay: as §1, with “3 (SRC-3)” for “1 (SRC-1)”, “assays: 1301 (Confirmation screen.), 1048 (Primary screen.)]” for “assays (depositor defined):AID1300, AID1808, AID504735, AID631]”; format: functional
[9] = target: T3, Heat shock factor protein 1 (Mus musculus, UniProt P38532); assay: enhancement of HSF1-driven luciferase signal – cell-based, NIH3T3, luminescence, dose retest, confirmation (AID 435004); format: functional;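 further: stress induced by proteasome inhibitor MG132 added 30 min after compound; luciferase reporter driven by HSF1 response element in NIH3T3 cells; actives raise luminescence as potentiators of the MG132 stress response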
T3 sequence (P38532 whole entry): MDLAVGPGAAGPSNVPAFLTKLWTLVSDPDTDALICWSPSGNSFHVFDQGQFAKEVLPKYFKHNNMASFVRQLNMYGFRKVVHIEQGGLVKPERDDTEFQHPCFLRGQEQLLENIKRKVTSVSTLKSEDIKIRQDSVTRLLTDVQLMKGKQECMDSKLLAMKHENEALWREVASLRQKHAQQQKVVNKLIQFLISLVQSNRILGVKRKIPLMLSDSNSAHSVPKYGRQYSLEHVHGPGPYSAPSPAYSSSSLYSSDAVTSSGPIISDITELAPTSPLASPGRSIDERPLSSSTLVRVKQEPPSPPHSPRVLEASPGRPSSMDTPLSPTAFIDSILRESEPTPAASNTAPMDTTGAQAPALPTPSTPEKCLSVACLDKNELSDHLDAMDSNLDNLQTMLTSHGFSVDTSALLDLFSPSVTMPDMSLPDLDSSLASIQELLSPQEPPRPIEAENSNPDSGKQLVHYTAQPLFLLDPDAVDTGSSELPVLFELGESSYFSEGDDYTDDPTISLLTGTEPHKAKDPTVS

[10] = target: Peroxisome proliferator-activated receptor gamma/Nuclear receptor coactivator 2 (Homo sapiens, UniProt P37231); assay: TR-FRET dose response biochemical High Throughput Screening assay for agonists of the steroid receptor coactivator 2 (SRC-2) recruitment by the peroxisome proliferator-activated receptor gamma (PPAR gamma): non-selective agonists. [Related pubchem assays: 1297, 1032 ]; format: functional
[11] = Luminescence Cell-Based Dose Retest to Confirm Inhibitors of Cancer Stem Cells. [Related pubchem assays (depositor defined):AID2717, AID2721]; format: functional; conditions: Homo sapiens
[12] = target: T4, Type-1 angiotensin II receptor (Homo sapiens, UniProt P30556); assay: antagonism of angiotensin II type 1 receptor – cell-based, uHTS hits, selectivity assay for APJ receptor antagonist project, dose response (AID 463214); format: functional;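 further: antagonist potency against angiotensin II stimulated AT1 response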
T4 sequence (P30556 whole entry): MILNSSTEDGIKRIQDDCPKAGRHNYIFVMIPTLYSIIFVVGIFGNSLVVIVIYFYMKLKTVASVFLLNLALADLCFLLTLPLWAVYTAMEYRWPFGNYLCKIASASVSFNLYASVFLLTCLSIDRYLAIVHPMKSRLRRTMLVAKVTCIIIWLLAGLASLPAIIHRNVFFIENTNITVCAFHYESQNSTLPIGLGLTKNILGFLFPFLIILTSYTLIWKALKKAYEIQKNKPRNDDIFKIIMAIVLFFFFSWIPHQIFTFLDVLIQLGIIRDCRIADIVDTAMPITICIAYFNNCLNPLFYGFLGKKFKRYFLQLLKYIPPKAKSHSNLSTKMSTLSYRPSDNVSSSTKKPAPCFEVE

Beta-galactosidase = Beta-galactosidase (Escherichia coli, UniProt Q8VNN2); assay: PubChem AID 485352; format: functional
Prothrombin = Prothrombin (Homo sapiens, UniProt P00734); assay: Thrombin 1536 HTS Dose Response Confirmation. [Related pubchem assays: 1046 (Thrombin 1536 HTS; hits were confirmed in this assay)]; format: functional
[13] = DRD fibroblast viability loss – cell-based, non-viral oncogenic, luminescence, dose response (AID 1934); format: functional; conditions: Homo sapiens
BJ [14] = assay: BJ-TERT-LT-ST fibroblast viability loss – cell-based, RAS-independent, luminescence, dose response (AID 1935); format: functional; conditions: Homo sapiens;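 further: BJ fibroblasts immortalized with TERT plus LT and ST oncogenes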
[15] = target: Luciferin 4-monooxygenase (Photinus pyralis, UniProt P08659); assay: inhibition of purified Photinus pyralis luciferase – biochemical, luminescence, dose response (AID 1891)
[16] = Luminescence Cell-Based Dose Confirmation HTS to Identify Inhibitors of Platelet Dense Granule Release. [Related pubchem assays: 1663 (Primary HTS), 1678 (Summary of Project)]; format: functional
HEK293 = assay: EBV LMP1 TES2 canonical NF-kB signalling blockers – cell-based, HEK293, luciferase, cherry-pick, dose response (AID 588343); format: functional; conditions: Homo sapiens
BJ [17] = assay: cells; format: functional, cell-based; conditions: Homo sapiens
BJ [18] = assay: BJ-TERT fibroblast viability loss – cell-based, RAS-independent, luminescence, dose response (AID 1933); format: functional; conditions: Homo sapiens

Sequence of Peroxisome proliferator-activated receptor gamma/Nuclear receptor coactivator 1 (P37231 whole entry): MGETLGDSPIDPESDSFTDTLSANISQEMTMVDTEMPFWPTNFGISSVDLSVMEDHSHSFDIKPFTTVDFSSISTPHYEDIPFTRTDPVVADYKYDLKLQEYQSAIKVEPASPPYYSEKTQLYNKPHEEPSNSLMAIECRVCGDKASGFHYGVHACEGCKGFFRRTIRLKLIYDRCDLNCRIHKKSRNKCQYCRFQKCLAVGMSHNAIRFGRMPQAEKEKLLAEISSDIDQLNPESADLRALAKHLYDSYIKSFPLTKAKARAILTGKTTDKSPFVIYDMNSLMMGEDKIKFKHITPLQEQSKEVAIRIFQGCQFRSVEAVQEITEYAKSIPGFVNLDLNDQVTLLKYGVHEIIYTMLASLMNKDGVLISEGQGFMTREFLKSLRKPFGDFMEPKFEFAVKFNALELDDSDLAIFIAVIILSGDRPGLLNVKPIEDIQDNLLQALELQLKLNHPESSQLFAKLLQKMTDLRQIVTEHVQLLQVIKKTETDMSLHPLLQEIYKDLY
Sequence of Peroxisome proliferator-activated receptor gamma/Nuclear receptor coactivator 1 (Q15788 whole entry, further chain): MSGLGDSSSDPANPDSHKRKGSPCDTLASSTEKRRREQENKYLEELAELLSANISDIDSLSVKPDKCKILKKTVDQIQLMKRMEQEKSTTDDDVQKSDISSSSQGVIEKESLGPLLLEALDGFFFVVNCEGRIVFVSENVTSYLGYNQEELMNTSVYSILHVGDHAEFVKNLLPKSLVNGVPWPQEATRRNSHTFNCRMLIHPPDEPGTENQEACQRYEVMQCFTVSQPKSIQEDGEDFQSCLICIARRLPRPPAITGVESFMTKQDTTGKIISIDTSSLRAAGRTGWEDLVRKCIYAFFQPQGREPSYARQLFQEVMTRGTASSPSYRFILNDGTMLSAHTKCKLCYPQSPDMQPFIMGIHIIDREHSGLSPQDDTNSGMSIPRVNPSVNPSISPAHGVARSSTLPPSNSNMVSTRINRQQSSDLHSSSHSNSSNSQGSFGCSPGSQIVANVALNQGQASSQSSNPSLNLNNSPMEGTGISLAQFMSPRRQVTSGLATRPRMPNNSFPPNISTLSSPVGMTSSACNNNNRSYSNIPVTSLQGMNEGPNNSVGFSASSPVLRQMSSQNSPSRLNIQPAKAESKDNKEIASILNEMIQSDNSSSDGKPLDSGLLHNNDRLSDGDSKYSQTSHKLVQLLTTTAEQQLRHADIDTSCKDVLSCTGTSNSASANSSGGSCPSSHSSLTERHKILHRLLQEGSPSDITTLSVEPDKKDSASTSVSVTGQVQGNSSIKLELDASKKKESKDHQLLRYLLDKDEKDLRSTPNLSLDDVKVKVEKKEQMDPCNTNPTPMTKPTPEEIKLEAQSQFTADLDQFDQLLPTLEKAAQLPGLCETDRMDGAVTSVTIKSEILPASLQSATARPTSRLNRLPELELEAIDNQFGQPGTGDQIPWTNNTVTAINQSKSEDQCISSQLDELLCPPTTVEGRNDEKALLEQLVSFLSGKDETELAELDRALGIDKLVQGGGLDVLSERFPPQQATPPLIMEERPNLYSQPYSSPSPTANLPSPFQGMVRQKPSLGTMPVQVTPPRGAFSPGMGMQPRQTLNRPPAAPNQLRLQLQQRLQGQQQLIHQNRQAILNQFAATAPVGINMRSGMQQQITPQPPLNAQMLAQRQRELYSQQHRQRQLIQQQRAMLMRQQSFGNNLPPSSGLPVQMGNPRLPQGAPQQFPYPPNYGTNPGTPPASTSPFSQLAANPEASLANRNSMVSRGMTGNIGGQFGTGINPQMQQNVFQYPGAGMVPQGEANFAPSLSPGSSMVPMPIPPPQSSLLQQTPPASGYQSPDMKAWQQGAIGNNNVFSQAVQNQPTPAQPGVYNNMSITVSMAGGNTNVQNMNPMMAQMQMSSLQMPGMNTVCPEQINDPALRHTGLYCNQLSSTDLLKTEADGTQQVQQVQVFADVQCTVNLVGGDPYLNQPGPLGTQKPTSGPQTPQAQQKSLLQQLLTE
Sequence of Peroxisome proliferator-activated receptor gamma/Nuclear receptor coactivator 2 (P37231 whole entry): as the sequence (P37231 whole entry) above
Sequence of Peroxisome proliferator-activated receptor gamma/Nuclear receptor coactivator 2 (Q15596 whole entry, further chain): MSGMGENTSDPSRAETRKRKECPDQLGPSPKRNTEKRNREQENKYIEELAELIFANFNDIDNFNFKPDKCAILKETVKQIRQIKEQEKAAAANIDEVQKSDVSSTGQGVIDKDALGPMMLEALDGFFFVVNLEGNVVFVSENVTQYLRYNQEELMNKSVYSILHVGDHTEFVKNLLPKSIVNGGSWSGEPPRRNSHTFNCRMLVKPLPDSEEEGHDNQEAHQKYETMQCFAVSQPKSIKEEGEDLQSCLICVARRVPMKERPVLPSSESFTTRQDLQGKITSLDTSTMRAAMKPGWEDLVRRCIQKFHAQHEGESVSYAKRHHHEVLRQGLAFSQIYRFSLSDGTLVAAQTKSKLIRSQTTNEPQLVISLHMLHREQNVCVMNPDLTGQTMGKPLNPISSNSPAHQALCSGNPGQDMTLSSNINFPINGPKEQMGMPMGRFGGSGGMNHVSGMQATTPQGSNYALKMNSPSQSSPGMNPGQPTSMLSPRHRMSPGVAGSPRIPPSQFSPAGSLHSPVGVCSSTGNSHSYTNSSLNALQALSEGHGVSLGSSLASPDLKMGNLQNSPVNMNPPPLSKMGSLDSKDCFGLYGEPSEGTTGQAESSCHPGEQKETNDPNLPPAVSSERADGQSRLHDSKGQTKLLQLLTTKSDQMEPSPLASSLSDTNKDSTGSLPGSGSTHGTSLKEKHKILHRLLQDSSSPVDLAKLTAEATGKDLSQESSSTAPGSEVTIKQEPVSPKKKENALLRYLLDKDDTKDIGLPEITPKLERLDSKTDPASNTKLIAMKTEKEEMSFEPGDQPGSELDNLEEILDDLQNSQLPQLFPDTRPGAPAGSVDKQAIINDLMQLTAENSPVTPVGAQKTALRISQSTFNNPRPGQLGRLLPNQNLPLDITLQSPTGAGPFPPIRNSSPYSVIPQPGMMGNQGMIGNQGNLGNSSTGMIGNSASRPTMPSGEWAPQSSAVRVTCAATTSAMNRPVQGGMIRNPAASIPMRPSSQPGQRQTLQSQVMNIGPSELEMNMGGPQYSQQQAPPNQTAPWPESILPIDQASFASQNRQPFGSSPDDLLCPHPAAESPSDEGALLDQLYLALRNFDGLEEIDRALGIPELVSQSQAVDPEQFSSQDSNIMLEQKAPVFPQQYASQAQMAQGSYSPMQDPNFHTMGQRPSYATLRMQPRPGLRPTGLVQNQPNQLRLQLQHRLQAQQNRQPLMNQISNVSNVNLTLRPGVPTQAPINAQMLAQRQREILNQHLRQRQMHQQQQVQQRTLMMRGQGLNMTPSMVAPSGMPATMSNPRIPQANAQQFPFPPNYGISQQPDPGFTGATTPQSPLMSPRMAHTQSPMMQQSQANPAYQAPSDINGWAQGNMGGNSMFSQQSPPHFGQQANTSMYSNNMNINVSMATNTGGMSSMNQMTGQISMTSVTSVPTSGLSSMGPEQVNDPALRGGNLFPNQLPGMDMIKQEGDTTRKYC
Sequence of Luciferin 4-monooxygenase (P08659 whole entry): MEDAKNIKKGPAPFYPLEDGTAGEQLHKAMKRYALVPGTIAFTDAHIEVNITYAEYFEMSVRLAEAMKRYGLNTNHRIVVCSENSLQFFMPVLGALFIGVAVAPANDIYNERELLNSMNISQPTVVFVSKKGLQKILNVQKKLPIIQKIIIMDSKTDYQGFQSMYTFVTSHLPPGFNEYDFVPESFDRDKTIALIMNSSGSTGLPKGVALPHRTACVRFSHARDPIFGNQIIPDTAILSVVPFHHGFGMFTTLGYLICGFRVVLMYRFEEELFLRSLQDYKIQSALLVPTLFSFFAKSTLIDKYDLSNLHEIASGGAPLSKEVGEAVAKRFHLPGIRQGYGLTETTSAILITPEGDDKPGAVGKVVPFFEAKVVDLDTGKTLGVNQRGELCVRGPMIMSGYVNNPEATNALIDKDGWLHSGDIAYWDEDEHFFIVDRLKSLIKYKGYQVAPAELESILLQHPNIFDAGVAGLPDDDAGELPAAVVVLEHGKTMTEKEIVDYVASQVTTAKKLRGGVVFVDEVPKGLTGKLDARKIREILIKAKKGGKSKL

## CN(C)CCCNC(=O)/C=C/c1ccc(OCc2c(F)cccc2Cl)cc1
Vero [1]
  CC50: > 25 µM (active)
Vero [2]
  IC50: 23.5 µM (active)
[3]
  EC50: 8.47 µM (active)
[4]
  EC50: 0.327 µM (active)

## Cc1ccc(-c2nc3ccccc3[nH]2)cc1NC(=O)c1sc2cc(Cl)ccc2c1Cl
[5]
  IC50: 13 µM (not active)
[3]
  EC50: > 60 µM (inconclusive)
[6]
  IC50: > 111 µM (not active)
[4]
  EC50: 0.642 µM (active)

## COc1ccc2nc(SC)c(C#N)cc2c1
[7]
  EC50: 14.1 µM (inactive)
[8]
  EC50: 41.8 µM (not active)
[9]
  EC50: > 260 µM (inactive)
[10]
  EC50: 12.3 µM (not active)

## COc1cc(/C=C/c2ccc3cccc(OC)c3n2)c(OC(C)=O)c([N+](=O)[O-])c1
[11]
  AC50: 7.38 µM (active)
[12]
  IC50: 10.2 µM (active)
Beta-galactosidase
  EC50: 26.9 µM (active)

## Cc1ccc(OCC(=O)N2CCC(N3CCCCCC3)CC2)cc1
Prothrombin
  IC50: > 50 µM (not active)

## O=C(CSc1nnc(-c2ccccc2)c(-c2ccccc2)n1)Nc1ccc(Br)cn1
Prothrombin
  IC50: > 50 µM (inconclusive)

## Cc1onc(-c2ccccc2Cl)c1C(=O)Nc1nnc(-c2ccc(Br)cc2)s1
[7]
  EC50: > 79.4 µM (inactive)
[8]
  EC50: > 79.4 µM (not active)
[10]
  EC50: 45 µM (not active)

## O=C(Nc1ccc(N2CCOCC2)cc1)C1CCN(S(=O)(=O)c2ccccc2F)CC1
Prothrombin
  IC50: > 50 µM (not active)

## COc1cccc(/C=N/Nc2ncccc2[N+](=O)[O-])c1OC
[13]
  EC50: 13.5 µM (active)
BJ [14]
  EC50: > 150 µM (not active)
[15]
  EC50: 5.27 µM (active)
[16]
  EC50: 3.32 µM (active)
HEK293
  AC50: 1.8 µM (active)
BJ [17]
  EC50: 15.6 µM (inconclusive)
BJ [18]
  EC50: 17.6 µM (active)

## Cc1ccc(N2CC(C(=O)N/N=C/c3cccc([N+](=O)[O-])c3)CC2=O)cc1 (configuration not stated)
Prothrombin
  IC50: > 50 µM (not active)

## CC(=O)/N=c1\sc2nc3ccccc3nc2n1N(C(C)=O)C(C)=O
[7]
  EC50: 25.2 µM (inactive)
[8]
  EC50: > 79.4 µM (not active)
[10]
  EC50: 22.9 µM (not active)
